“And” between values parts separate entries of the source, which are not always exact repeats. Equal entries are not always repeated. The source made the active and inactive calls. The calls are words filed in the database; no cut-off is given here.
Legend:
[1] = AUCfree in rat measured for 28 days; type: ADME; conditions: in vivo, 672 h, time 28 day
Homo sapiens [2] = organism: Homo sapiens; assay: Inhibition of c-MET L1195X/F1200X mutant (unknown origin) at 100 nM in presence of ATP by HotSpot Kinome Selectivity analysis
[3] = molecular target: 3',5'-cyclic-AMP phosphodiesterase 4D (Homo sapiens) (UniProt Q08499); assay: Inhibition of PDE4D2 (unknown origin) at 10 uM by CEREP analysis relative to control
Sequence of 3',5'-cyclic-AMP phosphodiesterase 4D (Homo sapiens) (Q08499 whole entry): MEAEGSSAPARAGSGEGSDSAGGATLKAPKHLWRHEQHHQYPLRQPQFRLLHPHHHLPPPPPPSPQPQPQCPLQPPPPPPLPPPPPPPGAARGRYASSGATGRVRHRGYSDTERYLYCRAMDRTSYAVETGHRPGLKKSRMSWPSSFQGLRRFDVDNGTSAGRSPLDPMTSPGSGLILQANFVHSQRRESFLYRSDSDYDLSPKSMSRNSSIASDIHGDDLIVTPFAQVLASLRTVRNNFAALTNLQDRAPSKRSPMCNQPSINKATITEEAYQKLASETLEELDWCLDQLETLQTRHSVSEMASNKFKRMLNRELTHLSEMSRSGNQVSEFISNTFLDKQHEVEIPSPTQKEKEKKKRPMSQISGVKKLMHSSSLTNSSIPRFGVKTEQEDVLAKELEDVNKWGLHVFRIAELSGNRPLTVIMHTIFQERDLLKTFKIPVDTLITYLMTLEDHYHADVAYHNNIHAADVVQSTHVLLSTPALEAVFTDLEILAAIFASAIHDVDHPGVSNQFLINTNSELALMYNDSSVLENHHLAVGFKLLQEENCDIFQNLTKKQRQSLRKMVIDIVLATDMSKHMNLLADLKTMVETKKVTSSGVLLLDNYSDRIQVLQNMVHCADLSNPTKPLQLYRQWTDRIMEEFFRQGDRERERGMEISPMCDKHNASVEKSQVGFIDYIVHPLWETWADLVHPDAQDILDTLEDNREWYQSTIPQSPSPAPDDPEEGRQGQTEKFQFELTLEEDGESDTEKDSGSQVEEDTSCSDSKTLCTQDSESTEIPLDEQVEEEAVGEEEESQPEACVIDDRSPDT

BaF3 [4] = system: BaF3
[5] = molecular target: Sodium-dependent serotonin transporter (Homo sapiens) (UniProt P31645); assay: Inhibition of SERT (unknown origin) at 10 uM by CEREP analysis relative to control
Mus musculus [6] = assay: In vivo inhibition of MET phosphorylation in human EBC-1 cells xenografted in athymic BALB/c nude mouse at 20 to 60 mg/kg, po measured after 12 hrs post-dose; type: functional, organism-based; conditions: dose 20-60 mg/kg
EBC-1 [7] = assay: Antitumor activity against human EBC-1 cells xenografted in athymic BALB/c nude mouse at 6 mg/kg, po bid treated for 21 days relative to control; type: functional; conditions: EBC-1, 504 h, time 21 day, read-out: TGI
[8] = Antitumor activity against human LU2503 cells xenografted in athymic BALB/c nude mouse at 20 mg/kg, po bid treated for 14 days relative to control; type: functional; conditions: LU2503, 336 h, time 14 day, read-out: TGI
[9] = AUCfree in dog measured for 28 days; type: ADME, Canis lupus familiaris; conditions: in vivo, 672 h, time 28 day
Homo sapiens [10] = organism: Homo sapiens; assay: Inhibition of c-MET D1228X/Y1230X mutant (unknown origin) at 100 nM in presence of ATP by HotSpot Kinome Selectivity analysis
BaF3 [11] = assay: cells; conditions: Mus musculus, BaF3, 72 h
Homo sapiens [12] = organism: Homo sapiens; assay: Inhibition of c-MET D1228 mutant (unknown origin) at 100 nM in presence of ATP by HotSpot Kinome Selectivity analysis
L-type calcium channel = L-type calcium channel (Homo sapiens, UniProt O60840+Q01668+Q13698+Q13936); assay: Inhibition of Calcium channel L-type (unknown origin) at 10 uM by CEREP analysis relative to control; type: protein assay
BaF3 [13] = assay: cells; conditions: Mus musculus, BaF3, 72 h; remark: listed apart in the source
hERG [14] = molecular target: T1, hERG (Homo sapiens, UniProt Q12809); assay: Inhibition of hERG; type: toxicity
T1 sequence (Q12809 whole entry): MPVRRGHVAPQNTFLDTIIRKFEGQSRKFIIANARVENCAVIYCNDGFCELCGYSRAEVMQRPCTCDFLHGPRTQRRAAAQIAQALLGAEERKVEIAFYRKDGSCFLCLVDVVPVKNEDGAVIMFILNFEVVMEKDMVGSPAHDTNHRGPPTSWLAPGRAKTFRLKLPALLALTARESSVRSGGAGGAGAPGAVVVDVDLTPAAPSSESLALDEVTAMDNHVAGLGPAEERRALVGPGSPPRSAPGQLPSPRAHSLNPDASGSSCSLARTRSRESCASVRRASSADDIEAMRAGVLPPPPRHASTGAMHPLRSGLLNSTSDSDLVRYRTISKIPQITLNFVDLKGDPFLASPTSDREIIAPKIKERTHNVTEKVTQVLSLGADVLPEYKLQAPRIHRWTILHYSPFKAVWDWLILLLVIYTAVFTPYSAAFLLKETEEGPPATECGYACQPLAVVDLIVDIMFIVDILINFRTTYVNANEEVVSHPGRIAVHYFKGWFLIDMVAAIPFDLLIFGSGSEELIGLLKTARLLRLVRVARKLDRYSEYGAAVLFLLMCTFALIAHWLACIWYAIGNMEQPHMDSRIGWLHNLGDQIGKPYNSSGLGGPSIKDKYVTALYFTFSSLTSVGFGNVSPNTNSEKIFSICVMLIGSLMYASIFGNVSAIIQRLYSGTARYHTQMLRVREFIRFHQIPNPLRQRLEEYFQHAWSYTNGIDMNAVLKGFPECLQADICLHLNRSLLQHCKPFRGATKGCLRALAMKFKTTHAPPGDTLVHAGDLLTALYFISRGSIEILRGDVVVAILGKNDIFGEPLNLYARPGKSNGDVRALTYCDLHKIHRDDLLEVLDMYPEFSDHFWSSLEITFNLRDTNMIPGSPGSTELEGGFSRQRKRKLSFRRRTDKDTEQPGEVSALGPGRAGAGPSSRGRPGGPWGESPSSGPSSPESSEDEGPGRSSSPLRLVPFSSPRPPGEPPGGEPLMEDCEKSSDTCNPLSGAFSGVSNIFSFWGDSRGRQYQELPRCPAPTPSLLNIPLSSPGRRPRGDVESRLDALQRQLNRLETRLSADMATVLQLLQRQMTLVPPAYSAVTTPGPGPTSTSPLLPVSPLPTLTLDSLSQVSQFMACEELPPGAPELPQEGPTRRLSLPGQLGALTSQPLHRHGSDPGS

Homo sapiens [15] = organism: Homo sapiens; assay: Inhibition of sodium channel site 2 (unknown origin) at 10 uM by CEREP analysis relative to control
[16] = Clearance in female Balb/c mouse at 1 mg/kg, iv; type: ADME, organism-based; conditions: in vivo
BaF3 [17] = assay: cells; conditions: Mus musculus, BaF3, 72 h; remark: listed apart in the source
Mus musculus [18] = assay: In vivo inhibition of MET phosphorylation in human EBC-1 cells xenografted in athymic BALB/c nude mouse administered orally measured after 1 hr post-dose; type: functional, organism-based; conditions: dose 2-60 mg/kg, route po
[19] = Toxicity in athymic BALB/c nude mouse allografted with mouse BaF3 cells harboring TPR-D1228N mutant assessed as body weight loss at 2 to 60 mg/kg, po bid treated for 10 to 21 days; type: organism-based; conditions: in vivo, dose lower 2 mg/kg, time lower 10 day, dose upper 60 mg/kg, time upper 21 day
BaF3 [20] = assay: cells; conditions: Mus musculus, BaF3, 72 h; remark: listed apart in the source
hERG [21] = molecular target: T1, hERG; assay: Inhibition of hERG at 10 uM by CEREP analysis relative to control; type: toxicity
[22] = Toxicity in athymic BALB/c nude mouse xenografted with human EBC-1 cells assessed as body weight loss at 2 to 60 mg/kg, po bid treated for 10 to 21 days; type: organism-based; conditions: in vivo, dose lower 2 mg/kg, time lower 10 day, dose upper 60 mg/kg, time upper 21 day
[23] = Toxicity in dog assessed as drug tolerance measured for 28 days; set-up: species or system Canis lupus familiaris; conditions: in vivo, 672 h, time 28 day
[24] = Antitumor activity against human LU2503 cells xenografted in athymic BALB/c nude mouse at 2 mg/kg, po bid treated for 14 days relative to control; type: functional; conditions: LU2503, 336 h, time 14 day, read-out: TGI
PXR = PXR (Homo sapiens, UniProt O75469); assay: Induction of PXR (unknown origin) assessed as fold increase in activity at 1 uM relative to control; type: toxicity; conditions: read-out: FC
Sequence of PXR (O75469 whole entry): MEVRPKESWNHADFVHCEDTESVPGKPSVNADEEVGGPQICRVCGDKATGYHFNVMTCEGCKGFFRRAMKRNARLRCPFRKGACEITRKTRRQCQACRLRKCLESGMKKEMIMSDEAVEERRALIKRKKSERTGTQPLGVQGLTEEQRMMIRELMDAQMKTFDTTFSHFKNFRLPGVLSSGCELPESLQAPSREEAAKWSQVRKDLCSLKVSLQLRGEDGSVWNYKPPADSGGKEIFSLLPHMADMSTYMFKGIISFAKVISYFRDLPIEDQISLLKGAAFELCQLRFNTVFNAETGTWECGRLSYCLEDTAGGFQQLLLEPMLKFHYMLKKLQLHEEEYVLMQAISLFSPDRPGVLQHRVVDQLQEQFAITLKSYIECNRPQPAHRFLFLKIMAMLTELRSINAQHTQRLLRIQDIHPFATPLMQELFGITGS

[25] = system: Hepatocyte growth factor receptor (Homo sapiens), P08581 [Y1235D]; assay: Inhibition of c-MET Y1235D mutant (unknown origin) at 100 nM in presence of ATP by HotSpot Kinome Selectivity analysis
[26] = Antitumor activity against human LU2503 cells xenografted in athymic BALB/c nude mouse at 6 mg/kg, po bid treated for 14 days relative to control; type: functional; conditions: LU2503, 336 h, time 14 day, read-out: TGI
[27] = Antitumor activity against human LU2503 cells xenografted in athymic BALB/c nude mouse at 60 mg/kg, po bid treated for 14 days relative to control; type: functional; conditions: LU2503, 336 h, time 14 day, read-out: TGI
BaF3 [28] = assay: cells; conditions: Mus musculus, BaF3, 72 h; remark: listed apart in the source
Cytochrome P450 3A4 = Cytochrome P450 3A4 (Homo sapiens, UniProt P08684); assay: Inhibition of CYP3A4 (unknown origin); type: ADME; conditions: human
BaF3 [29] = assay: cells; conditions: Mus musculus, BaF3, 72 h; remark: listed apart in the source
EBC-1 [30] = assay: Antitumor activity against human EBC-1 cells xenografted in athymic BALB/c nude mouse at 60 mg/kg, po bid treated for 21 days relative to control; type: functional; conditions: EBC-1, 504 h, time 21 day, read-out: TGI
BaF3 [31] = assay: cells; conditions: Mus musculus, BaF3, 72 h; remark: listed apart in the source
[32] = Half life in female Balb/c mouse at 1 mg/kg, iv; type: ADME, organism-based; conditions: in vivo
EBC-1 [33] = assay: Antitumor activity against human EBC-1 cells xenografted in athymic BALB/c nude mouse at 20 mg/kg, po bid treated for 21 days relative to control; type: functional; conditions: EBC-1, 504 h, time 21 day, read-out: TGI
[34] = molecular target: Macrophage-stimulating protein receptor (Homo sapiens) (UniProt Q04912); assay: Inhibition of wild-type RON (unknown origin) at 100 nM by kinome selectivity analysis relative to control
Sequence of Macrophage-stimulating protein receptor (Homo sapiens) (Q04912 25-304 limits assumed): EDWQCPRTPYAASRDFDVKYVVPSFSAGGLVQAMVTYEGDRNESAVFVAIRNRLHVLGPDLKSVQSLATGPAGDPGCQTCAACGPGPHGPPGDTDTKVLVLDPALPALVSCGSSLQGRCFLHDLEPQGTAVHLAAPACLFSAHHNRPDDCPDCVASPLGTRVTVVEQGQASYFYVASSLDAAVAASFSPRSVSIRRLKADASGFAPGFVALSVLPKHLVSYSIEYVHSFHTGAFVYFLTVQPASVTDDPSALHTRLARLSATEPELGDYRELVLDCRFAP
Sequence of Macrophage-stimulating protein receptor (Homo sapiens) (Q04912 310-1400 limits assumed): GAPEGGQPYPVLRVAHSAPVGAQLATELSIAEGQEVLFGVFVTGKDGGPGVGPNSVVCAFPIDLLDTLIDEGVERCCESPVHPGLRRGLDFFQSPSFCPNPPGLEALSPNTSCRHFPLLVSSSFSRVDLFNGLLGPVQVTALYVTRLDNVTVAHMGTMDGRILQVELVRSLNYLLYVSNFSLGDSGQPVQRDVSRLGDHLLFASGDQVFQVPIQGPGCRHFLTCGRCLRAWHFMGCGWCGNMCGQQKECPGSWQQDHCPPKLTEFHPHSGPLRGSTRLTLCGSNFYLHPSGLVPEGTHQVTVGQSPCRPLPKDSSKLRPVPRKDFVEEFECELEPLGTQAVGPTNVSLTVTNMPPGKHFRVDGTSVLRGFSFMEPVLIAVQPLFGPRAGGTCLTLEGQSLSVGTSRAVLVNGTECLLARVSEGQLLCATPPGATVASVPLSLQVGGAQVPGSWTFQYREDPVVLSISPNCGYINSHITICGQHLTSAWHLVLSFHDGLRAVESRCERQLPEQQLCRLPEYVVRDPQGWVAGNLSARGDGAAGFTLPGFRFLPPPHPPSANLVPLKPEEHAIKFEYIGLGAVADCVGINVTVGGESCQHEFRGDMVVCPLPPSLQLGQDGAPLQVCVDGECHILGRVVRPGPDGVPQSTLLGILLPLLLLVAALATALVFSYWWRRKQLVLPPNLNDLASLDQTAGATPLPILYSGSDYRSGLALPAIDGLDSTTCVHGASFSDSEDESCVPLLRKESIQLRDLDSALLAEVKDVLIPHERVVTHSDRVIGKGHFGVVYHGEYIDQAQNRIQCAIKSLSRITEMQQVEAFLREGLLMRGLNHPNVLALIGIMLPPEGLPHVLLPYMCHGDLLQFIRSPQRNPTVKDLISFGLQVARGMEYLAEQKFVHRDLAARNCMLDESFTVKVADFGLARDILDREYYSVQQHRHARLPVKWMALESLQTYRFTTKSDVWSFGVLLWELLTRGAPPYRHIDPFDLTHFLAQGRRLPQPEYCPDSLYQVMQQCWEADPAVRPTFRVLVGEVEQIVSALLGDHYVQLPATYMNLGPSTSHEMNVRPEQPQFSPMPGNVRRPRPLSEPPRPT

[35] = AUClast in Balb/c mouse at 10 mg/kg, po; type: ADME, organism-based; conditions: in vivo
BaF3 [36] = assay: Antitumor activity against mouse BaF3 cells harboring TPR-D1228N mutant cells allografted in athymic BALB/c nude mouse at 60 mg/kg, po bid treated for 10 days relative to control; type: functional; conditions: BaF3, 240 h, time 10 day, read-out: TGI
[37] = molecular target: cGMP-inhibited 3',5'-cyclic phosphodiesterase 3A (Homo sapiens) (UniProt Q14432); assay: Inhibition of PDE3A (unknown origin) at 10 uM by CEREP analysis relative to control
Sequence of cGMP-inhibited 3',5'-cyclic phosphodiesterase 3A (Homo sapiens) (Q14432 whole entry): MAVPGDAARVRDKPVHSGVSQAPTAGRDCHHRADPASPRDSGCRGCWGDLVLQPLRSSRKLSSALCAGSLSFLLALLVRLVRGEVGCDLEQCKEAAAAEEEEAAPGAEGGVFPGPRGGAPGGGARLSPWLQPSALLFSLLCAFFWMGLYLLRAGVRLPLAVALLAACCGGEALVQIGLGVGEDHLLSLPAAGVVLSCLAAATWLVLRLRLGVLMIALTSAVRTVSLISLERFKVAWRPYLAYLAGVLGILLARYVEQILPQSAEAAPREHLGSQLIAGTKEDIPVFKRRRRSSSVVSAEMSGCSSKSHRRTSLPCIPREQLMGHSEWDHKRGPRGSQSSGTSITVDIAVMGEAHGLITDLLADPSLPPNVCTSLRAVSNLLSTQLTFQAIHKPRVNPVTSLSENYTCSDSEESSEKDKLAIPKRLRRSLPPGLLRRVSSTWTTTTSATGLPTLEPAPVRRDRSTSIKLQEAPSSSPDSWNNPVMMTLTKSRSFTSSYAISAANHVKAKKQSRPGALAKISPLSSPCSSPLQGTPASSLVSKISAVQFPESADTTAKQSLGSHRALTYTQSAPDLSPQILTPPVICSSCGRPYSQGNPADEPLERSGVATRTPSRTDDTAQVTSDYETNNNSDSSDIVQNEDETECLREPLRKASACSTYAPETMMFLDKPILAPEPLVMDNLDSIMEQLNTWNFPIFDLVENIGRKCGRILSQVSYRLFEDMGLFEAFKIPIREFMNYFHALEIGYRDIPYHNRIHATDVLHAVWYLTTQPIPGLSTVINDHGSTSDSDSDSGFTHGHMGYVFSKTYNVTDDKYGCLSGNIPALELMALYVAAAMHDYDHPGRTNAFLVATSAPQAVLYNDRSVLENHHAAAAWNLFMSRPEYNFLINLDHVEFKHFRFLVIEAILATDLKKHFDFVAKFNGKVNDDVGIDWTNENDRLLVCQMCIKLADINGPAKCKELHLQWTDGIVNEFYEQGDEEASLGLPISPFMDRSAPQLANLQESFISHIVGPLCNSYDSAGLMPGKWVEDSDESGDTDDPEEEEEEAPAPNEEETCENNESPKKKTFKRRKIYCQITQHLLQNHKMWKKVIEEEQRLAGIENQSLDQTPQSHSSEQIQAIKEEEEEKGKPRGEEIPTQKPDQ

BaF3 [38] = assay: Antitumor activity against mouse BaF3 cells harboring TPR-D1228N mutant cells allografted in athymic BALB/c nude mouse at 6 mg/kg, po bid treated for 10 days relative to control; type: functional; conditions: BaF3, 240 h, time 10 day, read-out: TGI
BaF3 [39] = assay: cells; conditions: Mus musculus, BaF3, 72 h; remark: listed apart in the source
[40] = Half life in male Sprague-Dawley rat at 3 mg/kg, iv; type: ADME, organism-based; conditions: in vivo
BaF3 [41] = assay: cells; conditions: Mus musculus, BaF3, 72 h; remark: listed apart in the source
Mus musculus [42] = assay: In vivo inhibition of MET phosphorylation in human LU2503 cells xenografted in athymic BALB/c nude mouse administered orally measured after 1 hr post-dose; type: functional, organism-based; conditions: dose 2-60 mg/kg, route po

Q: Which fAUC [1] does the source give for `COc1cc2nccc(Oc3c(F)cc(NC(=O)c4cnccc4OC)cc3F)c2cc1O[C@@H](C)CO` here?
A: Its fAUC is 5100 ng·h/mL.

Q: What about the inhibition (Homo sapiens [2]) of the same compound?
A: The inhibition was -4%.

Q: What about the inhibition [3] of the same compound?
A: Its inhibition is 65%.

Q: And the EC50 (BaF3 [4])?
A: Its EC50 is 11 nM and 5.1 nM.

Q: And the inhibition [5]?
A: The inhibition was 1%.

Q: What about the inhibition (Mus musculus [6]) of the same compound?
A: The inhibition was “Active”.

Q: And the inhibition in vivo at 6 mg/kg (EBC-1 [7])?
A: Its inhibition in vivo at 6 mg/kg is 52%.

Q: And the inhibition in vivo at 20 mg/kg [8]?
A: The inhibition in vivo at 20 mg/kg was 110%.

Q: And the fAUC [9]?
A: Its fAUC is 5100 ng·h/mL.

Q: What about the inhibition (Homo sapiens [10]) of the same compound?
A: The inhibition was 49%.

Q: And the EC50 (BaF3 [11])?
A: Its EC50 is 19 nM.

Q: What about the inhibition (Homo sapiens [12]) of the same compound?
A: Its inhibition is 0%.

Q: And the inhibition at 10 µM (L-type calcium channel)?
A: Its inhibition at 10 µM is -4%.

Q: What about the EC50 (BaF3 [13]) of the same compound?
A: The EC50 was 37 nM.

Q: And the IC20 (hERG [14])?
A: Its IC20 is 10000 nM.

Q: And the inhibition (Homo sapiens [15])?
A: The inhibition was 40%.

Q: And the clearance [16]?
A: The clearance was 14.3 mL/min/kg.

Q: What about the EC50 (BaF3 [17]) of the same compound?
A: The EC50 was 9.1 nM.

Q: What about the inhibition (Mus musculus [18]) of the same compound?
A: The inhibition was “Dose-dependent-effect”.

Q: What about the Activity [19] of the same compound?
A: The Activity was “Non-toxic”.

Q: What about the EC50 (BaF3 [20]) of the same compound?
A: The EC50 was 51 nM.

Q: And the inhibition at 10 µM (hERG [21])?
A: Its inhibition at 10 µM is 18%.

Q: What about the Activity [22] of the same compound?
A: The Activity was “Non-toxic”.

Q: What about the Activity [23] of the same compound?
A: The Activity was “Non-toxic”.

Q: What about the inhibition in vivo at 2 mg/kg [24] of the same compound?
A: The inhibition in vivo at 2 mg/kg was 43%.

Q: What about the fold induction at 1 µM (PXR) of the same compound?
A: Its fold induction at 1 µM is less than 1.5.

Q: What about the inhibition [25] of the same compound?
A: Its inhibition is 85%.

Q: What about the inhibition in vivo at 6 mg/kg [26] of the same compound?
A: The inhibition in vivo at 6 mg/kg was 77%.

Q: And the inhibition in vivo at 60 mg/kg [27]?
A: Its inhibition in vivo at 60 mg/kg is 113%.

Q: And the EC50 (BaF3 [28])?
A: The EC50 was 2.5 nM.

Q: And the “inhibition (INH)” value (Cytochrome P450 3A4)?
A: The value was “Not_active”.

Q: What about the EC50 (BaF3 [29]) of the same compound?
A: The EC50 was 9.1 nM.

Q: And the inhibition in vivo at 60 mg/kg (EBC-1 [30])?
A: The inhibition in vivo at 60 mg/kg was 110%.

Q: And the EC50 (BaF3 [31])?
A: The EC50 was 538 nM.

Q: And the half-life [32]?
A: The half-life was 1.8 h.

Q: And the inhibition in vivo at 20 mg/kg (EBC-1 [33])?
A: The inhibition in vivo at 20 mg/kg was 88%.

Q: What about the inhibition [34] of the same compound?
A: The inhibition was greater than 90%.

Q: What about the AUC(0-t) [35] of the same compound?
A: Its AUC(0-t) is 13500 ng·h/mL.

Q: What about the inhibition in vivo at 60 mg/kg (BaF3 [36]) of the same compound?
A: The inhibition in vivo at 60 mg/kg was 128%.

Q: What about the inhibition [37] of the same compound?
A: Its inhibition is 16%.

Q: And the inhibition in vivo at 6 mg/kg (BaF3 [38])?
A: Its inhibition in vivo at 6 mg/kg is 44%.

Q: And the EC50 (BaF3 [39])?
A: Its EC50 is 18 nM.

Q: And the half-life [40]?
A: The half-life was 4.9 h.

Q: What about the EC50 (BaF3 [41]) of the same compound?
A: Its EC50 is 7.7 nM.

Q: And the inhibition (Mus musculus [42])?
A: The inhibition was “Dose-dependent-effect”.

Reference: ChEMBL document CHEMBL6182925 (J Med Chem, 2025)
